From patent US11419913B2, “Pharmaceutical compositions for inhibiting inflammatory cytokines” (S.I.S. SHULOV INNOVATIVE SCIENCE LTD., priority 2018, dated 2022) come the findings set out here.

≈ marks a conversion by molar mass, not a printed value. Structures can show the parent of a compound that is named as a salt. Where a SMILES comes first, the peptide text is derived from it. [ ]: non-standard residue; d: D form. The star is where a group is joined. pGlu = O=C1CC[C@@H](C(=O)O)N1; Octanoyl = CCCCCCCC(=O)*

For data set [1], the system named is oxazolone-induced atopic dermatitis (AD) mouse models. Description: Oxazolone-induced atopic dermatitis mouse model, clinical lesions. It is filed as in vivo. The method, then:
The effect of topical administration of ZEP3 (SEQ ID NO: 1), and its sodium salt form (ZEP3Na), and ZEP4 (SEQ ID NO: 2) was evaluated in oxazolone-induced atopic dermatitis (AD) mouse models. This model is widely used and well described in literature (Avci et al. 2013 Expert Opin Drug Discov. 8, 331-355; Petersen T. K. 2006, Basic Clin. Pharmacol. Toxicol. 99, 104-115) as an accepted animal model for evaluating drugs for AD therapy in humans.

Data set [2] can be described thus: Oxazolone-induced atopic dermatitis mouse model, tolerability and bodyweights.
Description: Method: Animals were sensitized by topical administration of oxazolone 2% in ethanol on the back at Day 0 after shaving and depilation of the animals (sensitization phase). Then a challenge was performed one week later by topical administration of oxazolone 1% in ethanol on the back and on right ear every 2 days at 10 occasions namely for total 3 weeks. The tested compounds were applied during the challenge phase every 2 days via the topical route as ready to use cream formulations. The surface of application was the same as for challenge (back+ear). 100 μL were deposited on the back and the back was smoothly massaged. Then, remaining formulation on finger glove was deposited on the internal face of the ear. Every other day, back skin and ears thickness were measured using caliper; and the following clinical scores were recorded from back skin: erythema and scaling. Animals were also weighed every other day (approximate bodyweights of a mouse at startup is about 20 g).
The formulations used for topical administration of the tested compound were: ZEP3 1% cream having pH 7.1 and comprising: Propylene glycol, Polysorbate 80, Edetate Disodium, Silicon dioxide (syloid), Methylparaben, White petrolatum, Isopropyl Myristate, Cetyl Alcohol and Glyceryl Monostearate. ZEP3Na 1% cream having pH 8.0 and comprising: Propylene glycol, Polysorbate 80, Edetate Disodium, Silicon dioxide (syloid), Methylparaben, White petrolatum, Isopropyl Myristate, Cetyl Alcohol and Glyceryl Monostearate. ZEP4 1% cream having pH 4.5 and comprising: Propylene glycol, Glycerin, Polysorbate 80, EDTA Disodium, Xanthan Gum, Silicon dioxide (syloid), Methylparaben, White petrolatum, Isopropyl Myristate, Cetyl Alcohol, Stearyl Alcohol, and Glyceryl Monostearate (kolliwax).
Data set [3] can be described thus: physchem. The conditions noted are these: water.
Data set [4] relates to CMC type arthritis. Description: Treatment of CMC arthritis of the big toe in a subject. It is filed as in vivo, human. The conditions noted are these: 0.5% cream applied on the swollen area 5 times a day. From the text: Their toe was swollen, red, and so painful that it prevented them from walking. ZEP3 sodium salt at 0.5% cream was applied on the swollen area 5 times a day.

Data set [5] concerns TNF alpha. Description: TNF alpha secretion in LPS treated human keratinocytes (ELISA). It is filed as cell-based. To be noted: for TNFα: ZEP3Na without DMSO; for Fold Change: refers to TNF-α concentration in sample #2; for % Inhibition: vs corresponding control group without peptide. The method, then: Methods: SCCE020 cells (EpiGRO™ Human Epidermal Keratinocytes) were grown in complete growth medium (EpiGRO™ Human Keratinocytes Complete Medium; Millipore Cat. #SCMK001) for 4 passages. At passage 5, cells were seeded (3*10^5 cells/well) in triplicates in a volume of 1 ml complete growth medium per well. Additional 3 control wells contained only medium without cells. Upon adherence, cell medium was replaced by basal medium containing L-Glutamine without supplements (starvation medium) and cells were starved overnight. The next day, 24 hours after seeding, the cells were treated with ZEP3 or ZEP3Na or appropriate diluent (PBS or DMSO). After 4 hours of incubation, LPS (from E. Coli 055: B5; Sigma Cat. #L6529-1MG) was added to the wells in final concentration of 20 or 30 μg/ml.
Cells were incubated for 24 hours in tissue culture incubator. After collecting cell supernatants from all wells, cells from treatment groups: 1, 2, 3, 8, 9, 10, 13, 14 (without DMSO groups) were pelleted and stored at −80° C. for further analyses. The cells were collected from as following: upon supernatants collection, the wells were rinsed with trypsin, then incubated with trypsin until they detached from the plate surface, centrifuged, washed with PBS and stored as a cell pellet. TNF-α concentration in the supernatants was measured by ELISA (Quantikine HS ELISA; R&D Systems Cat. #HSTA00D), in 5 replicates.
TNF alpha concentration in the samples was calculated according to the standard curve trend line equation: =0.063x+0.1718. Percent inhibition of TNF alpha production was calculated in each treatment group in comparison to the corresponding control group (same conditions, without peptide).

Where [6] appears, read: peptide 0.02 mg/ml, LPS 20 μg/ml.
[7] abbreviates: peptide 0.2 mg/ml, LPS 20 μg/ml.
Setting [8] is: peptide 0.2 mg/ml, LPS 30 μg/ml.
The mark [9] stands for this setting: peptide 0.4 mg/ml, LPS 20 μg/ml.

Regarding `C[C@H]1C[C@H]2[C@@H]3CCC4=CC(=O)C=C[C@]4(C)[C@@]3(F)[C@@H](O)C[C@]2(C)[C@@]1(O)C(=O)CO` [Betamethasone, reference compound], the “Back skin thickness decrease” value in data set [1] (day 28, topical, 2.5 mg/kg) is 40%. Besides, the bodyweight loss in data set [2] (topical, 2.5 mg/kg) is given as 8-10%.
In general, solubility refers to how much of the substance goes into solution per volume. Read a high solubility as much dissolved substance. In data set [3], `C[C@@H](O)[C@H](NC(=O)[C@H](Cc1c[nH]c2ccccc12)NC(=O)[C@H](CC(N)=O)NC(=O)[C@@H]1CCC(=O)N1)C(=O)O` [ZEP4 sodium salt, pGlu-Asn-Trp-Thr-OH.nNa] (HELM PEPTIDE1{[Glp].N.W.T}$$$$V2.0) came in with a solubility of 50 mg/mL.
The % Inhibition is the percentage by which the read-out fell short of the control. For `CCCCCCCC(=O)NCCCC[C@H](NC(=O)[C@H](Cc1c[nH]c2ccccc12)NC(=O)[C@H](CC(N)=O)NC(=O)[C@@H]1CCC(=O)N1)C(=O)O` [ZEP3Na, pGlu-Asn-Trp-Lys(Octanoyl)-OH.nNa] ([pGlu]NWK(Octanoyl)-OH), the “Scaling: period of reduction” value in data set [1] (1% cream topical, 50 mg/kg, scaling score of back skin) was “from days 14 to 24”. In addition, in data set [1] (days 18, 20 and 22), the “Right ear thickness, significant difference in comparison to control” value was −18.4 to −22.7%. In data set [1] (vs control group), the “Erythema scoring: days with a significant difference” value was “day 24”. Moreover, in data set [1] (vs control group), the “total score: days with significant difference” value was “days 14, 18, 20 and 22”. Moreover, the “time to relief reported by the subject” value in data set [4] was “within one day”. The “time to resolution of the condition” value in data set [4] lay in the range of 3 to 4 days. Moreover, the “TNF alpha levels / production in LPS treated human keratinocytes (in words)” value in data set [5] (compared with cells stimulated with LPS alone) is listed as “dose dependent inhibition”. The TNFα is 9.2 pg/mL in data set [5] (peptide 0.02 mg/ml, LPS 20 μg/ml, ZEP3 in 0.025% DMSO); 6.7 pg/mL in data set [5] (peptide 0.2 mg/ml, LPS 20 μg/ml, ZEP3 in 0.05% DMSO); 13.1 pg/mL in data set [5] (peptide 0.2 mg/ml, LPS 30 μg/ml, ZEP3 in 0.10% DMSO); 5.9 pg/mL in data set [5] (peptide 0.4 mg/ml, LPS 20 μg/ml, ZEP3 in 0.10% DMSO). Moreover, the “Fold Change” value in data set [5] (setting [6]) turned out to be 3.3; in data set [5] (setting [7]) it was 2.4; in data set [5] (setting [8]), 4.7; in data set [5] (setting [9]) it was 2.1. The “% Inhibition” value in data set [5] (setting [6]) was 26%; in data set [5] (setting [7]) it was 46%; in data set [5] (setting [8]) it was 38%; in data set [5] (setting [9]), 52%. The molecule further showed a solubility in data set [3] of 50 mg/mL (≈ 73.1 mM). The tolerability result in data set [2] (50 mg/kg topical to atopic dermatitis induced mice) is “well tolerated”. Further, the “Bodyweights in comparison to the excipient” value in data set [2] (day 8 to day 28) is reported as “behaved normally”.
